{"source": "paper PMC7265341", "about": "“Quantifying CDK inhibitor selectivity in live cells” (Nature Communications, 2020)", "key": {"[1]": {"target": "CDK20/Cyclin H (Homo sapiens, UniProt Q8IZL9)", "experiment": "NanoBRET live-cell target engagement, NanoLuc-CDK20/Cyclin H in HEK-293", "type": "binding", "conditions": "read-out: Inhibition at 10µM (%), CDK20/H"}, "[2]": {"target": "CDK5/CDK5R1 (Homo sapiens, UniProt Q00535)", "sequence (Q00535 whole entry)": "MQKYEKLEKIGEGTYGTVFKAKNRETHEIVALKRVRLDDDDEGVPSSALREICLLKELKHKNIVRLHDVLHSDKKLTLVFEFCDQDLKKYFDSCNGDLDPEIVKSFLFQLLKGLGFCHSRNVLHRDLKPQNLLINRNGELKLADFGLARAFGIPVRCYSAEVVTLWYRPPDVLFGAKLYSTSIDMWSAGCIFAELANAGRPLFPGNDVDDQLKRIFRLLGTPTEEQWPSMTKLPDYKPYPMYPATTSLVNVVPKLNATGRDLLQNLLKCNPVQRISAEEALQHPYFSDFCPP", "sequence (Q15078 whole entry partner)": "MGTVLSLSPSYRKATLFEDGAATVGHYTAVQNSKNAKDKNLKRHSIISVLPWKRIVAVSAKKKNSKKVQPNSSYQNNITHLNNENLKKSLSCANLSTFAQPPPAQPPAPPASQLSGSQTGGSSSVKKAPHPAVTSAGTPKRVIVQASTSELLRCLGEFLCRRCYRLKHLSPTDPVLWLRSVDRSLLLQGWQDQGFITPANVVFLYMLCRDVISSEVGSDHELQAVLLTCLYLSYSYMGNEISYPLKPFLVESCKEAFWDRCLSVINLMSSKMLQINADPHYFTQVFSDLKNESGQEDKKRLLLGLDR", "experiment": "NanoBRET live-cell target engagement, CDK5-NanoLuc/CDK5R1 in HEK-293", "type": "binding", "conditions": "CDK5/CDK5R1, read-out: Inhibition at 10µM (%)"}, "[3]": {"target": "CDK15/Cyclin Y (Homo sapiens, UniProt Q96Q40)", "sequence (Q96Q40 whole entry)": "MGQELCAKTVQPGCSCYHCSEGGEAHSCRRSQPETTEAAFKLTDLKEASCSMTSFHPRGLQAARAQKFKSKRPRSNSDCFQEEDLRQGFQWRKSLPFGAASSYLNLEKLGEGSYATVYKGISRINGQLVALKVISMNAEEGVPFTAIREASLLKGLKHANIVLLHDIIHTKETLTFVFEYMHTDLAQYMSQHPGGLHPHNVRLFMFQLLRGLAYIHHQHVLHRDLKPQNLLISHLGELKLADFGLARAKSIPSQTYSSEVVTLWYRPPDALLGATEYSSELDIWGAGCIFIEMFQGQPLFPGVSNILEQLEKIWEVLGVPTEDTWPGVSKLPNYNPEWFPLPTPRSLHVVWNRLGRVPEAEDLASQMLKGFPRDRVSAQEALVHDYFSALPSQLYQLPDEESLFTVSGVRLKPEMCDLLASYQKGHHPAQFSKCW", "sequence (Q8ND76 whole entry partner)": "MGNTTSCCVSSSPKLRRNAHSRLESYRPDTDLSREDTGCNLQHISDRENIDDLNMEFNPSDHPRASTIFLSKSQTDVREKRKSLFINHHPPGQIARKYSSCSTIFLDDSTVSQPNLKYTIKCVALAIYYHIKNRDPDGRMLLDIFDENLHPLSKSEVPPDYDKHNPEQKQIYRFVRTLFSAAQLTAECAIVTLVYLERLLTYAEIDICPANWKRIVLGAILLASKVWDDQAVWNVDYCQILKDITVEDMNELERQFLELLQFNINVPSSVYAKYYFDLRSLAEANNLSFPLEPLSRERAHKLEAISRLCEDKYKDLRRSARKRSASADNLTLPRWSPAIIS", "experiment": "NanoBRET live-cell target engagement, NanoLuc-CDK15/Cyclin Y in HEK-293", "type": "binding", "conditions": "read-out: Inhibition at 10µM (%), CDK15/Y"}, "[4]": {"target": "CDK7 (Homo sapiens, UniProt P50613)", "sequence (P50613 whole entry)": "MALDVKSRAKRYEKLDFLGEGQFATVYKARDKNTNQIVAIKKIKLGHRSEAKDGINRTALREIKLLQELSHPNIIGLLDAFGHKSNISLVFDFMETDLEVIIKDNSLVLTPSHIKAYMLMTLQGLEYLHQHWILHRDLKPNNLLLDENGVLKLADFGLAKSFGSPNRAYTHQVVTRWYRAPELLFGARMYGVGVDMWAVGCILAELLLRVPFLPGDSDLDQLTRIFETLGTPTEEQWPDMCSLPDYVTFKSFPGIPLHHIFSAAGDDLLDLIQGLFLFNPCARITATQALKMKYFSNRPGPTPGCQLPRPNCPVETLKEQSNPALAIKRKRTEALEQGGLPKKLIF", "experiment": "NanoBRET live-cell target engagement, NanoLuc-CDK7 in HEK-293", "type": "binding", "conditions": "CDK7, read-out: Inhibition at 10µM (%)"}, "[5]": {"target": "CDK17/Cyclin Y (Homo sapiens, UniProt Q00537)", "sequence (Q00537 whole entry)": "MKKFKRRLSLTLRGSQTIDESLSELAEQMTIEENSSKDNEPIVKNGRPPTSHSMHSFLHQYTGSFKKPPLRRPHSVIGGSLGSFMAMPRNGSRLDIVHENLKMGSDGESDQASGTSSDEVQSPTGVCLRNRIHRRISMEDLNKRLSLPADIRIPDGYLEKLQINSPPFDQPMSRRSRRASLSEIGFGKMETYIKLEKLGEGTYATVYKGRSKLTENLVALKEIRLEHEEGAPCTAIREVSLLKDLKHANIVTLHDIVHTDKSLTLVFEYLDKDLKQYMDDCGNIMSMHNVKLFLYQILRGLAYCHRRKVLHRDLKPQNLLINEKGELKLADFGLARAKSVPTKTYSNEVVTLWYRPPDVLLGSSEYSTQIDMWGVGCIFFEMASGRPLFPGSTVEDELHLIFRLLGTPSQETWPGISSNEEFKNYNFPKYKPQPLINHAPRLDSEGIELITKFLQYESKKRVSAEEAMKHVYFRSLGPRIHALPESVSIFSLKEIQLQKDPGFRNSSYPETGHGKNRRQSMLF", "sequence (Q8ND76 whole entry partner)": "as the sequence (Q8ND76 whole entry partner) above", "experiment": "NanoBRET live-cell target engagement, CDK17-NanoLuc/Cyclin Y in HEK-293", "type": "binding", "conditions": "read-out: Inhibition at 10µM (%), CDK17/Y"}, "[6]": {"target": "CDK4/Cyclin D1 (Homo sapiens, UniProt P11802)", "sequence (P11802 whole entry)": "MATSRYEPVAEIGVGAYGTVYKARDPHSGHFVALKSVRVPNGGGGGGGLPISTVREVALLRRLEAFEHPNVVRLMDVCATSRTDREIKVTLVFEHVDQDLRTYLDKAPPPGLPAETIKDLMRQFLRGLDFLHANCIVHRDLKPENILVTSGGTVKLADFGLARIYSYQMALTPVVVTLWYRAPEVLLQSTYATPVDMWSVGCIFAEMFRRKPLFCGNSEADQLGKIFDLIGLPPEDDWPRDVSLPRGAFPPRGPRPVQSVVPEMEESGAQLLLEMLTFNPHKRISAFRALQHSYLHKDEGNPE", "sequence (P24385 whole entry partner)": "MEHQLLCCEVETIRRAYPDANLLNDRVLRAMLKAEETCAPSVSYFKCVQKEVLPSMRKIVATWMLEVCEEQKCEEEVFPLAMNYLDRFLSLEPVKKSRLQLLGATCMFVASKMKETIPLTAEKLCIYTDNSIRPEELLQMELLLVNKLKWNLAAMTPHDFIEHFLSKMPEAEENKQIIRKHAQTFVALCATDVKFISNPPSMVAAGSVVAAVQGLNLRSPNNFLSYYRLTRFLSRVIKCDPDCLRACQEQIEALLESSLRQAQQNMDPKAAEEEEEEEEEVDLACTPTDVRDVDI", "experiment": "NanoBRET live-cell target engagement, NanoLuc-CDK4/Cyclin D1 in HEK-293", "type": "binding", "conditions": "CDK4/D1, read-out: Inhibition at 10µM (%)"}, "[7]": {"target": "CDK14/Cyclin Y (Homo sapiens, UniProt O94921)", "experiment": "NanoBRET live-cell target engagement, CDK14-NanoLuc/Cyclin Y in HEK-293", "type": "binding", "conditions": "read-out: Inhibition at 10µM (%), CDK14/Y"}, "[8]": {"target": "CDK18/Cyclin Y (Homo sapiens, UniProt Q07002)", "sequence (Q07002 whole entry)": "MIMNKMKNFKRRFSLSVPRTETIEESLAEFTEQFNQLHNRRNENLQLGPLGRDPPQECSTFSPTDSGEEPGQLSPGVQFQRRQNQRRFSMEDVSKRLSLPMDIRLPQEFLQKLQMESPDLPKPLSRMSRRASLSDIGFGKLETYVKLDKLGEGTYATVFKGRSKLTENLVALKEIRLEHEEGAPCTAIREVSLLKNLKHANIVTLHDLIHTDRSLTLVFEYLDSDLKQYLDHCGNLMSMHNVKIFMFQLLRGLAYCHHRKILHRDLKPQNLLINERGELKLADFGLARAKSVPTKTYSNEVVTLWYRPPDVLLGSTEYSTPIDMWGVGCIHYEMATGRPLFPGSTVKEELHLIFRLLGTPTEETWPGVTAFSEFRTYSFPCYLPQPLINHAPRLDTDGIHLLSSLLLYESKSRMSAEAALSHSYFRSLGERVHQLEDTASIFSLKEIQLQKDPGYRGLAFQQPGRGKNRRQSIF", "sequence (Q8ND76 whole entry partner)": "as the sequence (Q8ND76 whole entry partner) above", "experiment": "NanoBRET live-cell target engagement, CDK18-NanoLuc/Cyclin Y in HEK-293", "type": "binding", "conditions": "read-out: Inhibition at 10µM (%), CDK18/Y"}, "[9]": {"target": "CDK3/Cyclin E1 (Homo sapiens, UniProt Q00526)", "experiment": "NanoBRET live-cell target engagement, CDK3-NanoLuc/Cyclin E1 in HEK-293", "type": "binding", "conditions": "CDK3/E1, read-out: Inhibition at 10µM (%)"}, "[10]": {"target": "CDK9/Cyclin K (Homo sapiens, UniProt P50750)", "sequence (P50750 whole entry)": "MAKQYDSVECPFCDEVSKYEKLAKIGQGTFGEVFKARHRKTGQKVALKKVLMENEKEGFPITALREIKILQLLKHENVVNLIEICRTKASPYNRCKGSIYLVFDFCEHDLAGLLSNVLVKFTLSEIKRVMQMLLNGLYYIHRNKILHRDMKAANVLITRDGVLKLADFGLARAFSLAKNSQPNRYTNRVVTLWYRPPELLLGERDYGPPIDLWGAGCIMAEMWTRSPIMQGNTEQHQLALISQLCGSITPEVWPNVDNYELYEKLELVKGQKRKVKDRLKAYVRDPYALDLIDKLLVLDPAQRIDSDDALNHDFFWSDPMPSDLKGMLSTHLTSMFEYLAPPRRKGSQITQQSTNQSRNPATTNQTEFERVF", "sequence (O75909 whole entry partner)": "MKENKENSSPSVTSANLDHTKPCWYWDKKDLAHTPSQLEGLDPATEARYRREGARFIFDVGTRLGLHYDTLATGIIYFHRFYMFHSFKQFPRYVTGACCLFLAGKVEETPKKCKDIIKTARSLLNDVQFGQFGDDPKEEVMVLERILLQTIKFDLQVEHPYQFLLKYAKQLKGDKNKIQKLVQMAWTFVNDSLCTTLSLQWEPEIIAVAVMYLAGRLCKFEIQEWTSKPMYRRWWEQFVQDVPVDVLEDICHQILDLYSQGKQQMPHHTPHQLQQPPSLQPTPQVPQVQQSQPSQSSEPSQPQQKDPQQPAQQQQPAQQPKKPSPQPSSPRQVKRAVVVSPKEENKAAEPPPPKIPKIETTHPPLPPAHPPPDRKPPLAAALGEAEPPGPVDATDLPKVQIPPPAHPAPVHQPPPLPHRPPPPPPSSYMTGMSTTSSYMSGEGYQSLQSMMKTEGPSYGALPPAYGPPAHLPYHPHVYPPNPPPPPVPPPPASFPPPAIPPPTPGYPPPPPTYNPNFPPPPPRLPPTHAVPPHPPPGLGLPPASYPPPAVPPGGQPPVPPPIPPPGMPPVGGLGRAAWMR", "experiment": "NanoBRET live-cell target engagement, NanoLuc-CDK9/Cyclin K in HEK-293", "type": "binding", "conditions": "CDK9/K, read-out: Inhibition at 10µM (%)"}, "[11]": {"target": "CDK11B/Cyclin L2 (Homo sapiens, UniProt P21127)", "experiment": "NanoBRET live-cell target engagement, CDK11B-NanoLuc/Cyclin L2 in HEK-293", "type": "binding", "conditions": "read-out: Inhibition at 10µM (%), CDK11b/L2"}, "[12]": {"target": "T1, CDK11A/Cyclin L2 (Homo sapiens, UniProt Q9UQ88)", "T1 sequence (Q9UQ88 1-783)": "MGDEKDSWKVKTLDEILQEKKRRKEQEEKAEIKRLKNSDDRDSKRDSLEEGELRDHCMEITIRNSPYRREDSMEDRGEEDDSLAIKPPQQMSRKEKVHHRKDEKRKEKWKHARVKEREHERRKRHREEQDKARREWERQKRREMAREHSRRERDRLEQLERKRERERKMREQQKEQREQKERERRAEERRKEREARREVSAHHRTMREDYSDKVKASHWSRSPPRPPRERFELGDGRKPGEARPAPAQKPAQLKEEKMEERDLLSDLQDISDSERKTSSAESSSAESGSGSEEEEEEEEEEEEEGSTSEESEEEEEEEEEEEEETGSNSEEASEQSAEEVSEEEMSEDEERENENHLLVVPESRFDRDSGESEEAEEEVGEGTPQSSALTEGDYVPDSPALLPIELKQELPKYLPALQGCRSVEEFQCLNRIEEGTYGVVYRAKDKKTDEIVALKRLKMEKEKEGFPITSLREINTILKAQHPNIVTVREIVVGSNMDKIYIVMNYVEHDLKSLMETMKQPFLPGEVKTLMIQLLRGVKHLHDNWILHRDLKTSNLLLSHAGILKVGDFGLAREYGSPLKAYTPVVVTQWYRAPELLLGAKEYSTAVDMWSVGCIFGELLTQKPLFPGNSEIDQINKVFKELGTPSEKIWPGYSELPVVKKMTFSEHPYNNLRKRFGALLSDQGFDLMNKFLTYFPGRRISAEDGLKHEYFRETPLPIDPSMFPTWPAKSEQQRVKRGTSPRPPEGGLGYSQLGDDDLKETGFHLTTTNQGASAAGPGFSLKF", "experiment": "NanoBRET live-cell target engagement, CDK11A-NanoLuc/Cyclin L2 in HEK-293", "type": "binding", "conditions": "read-out: Inhibition at 10µM (%), CDK11a/L2"}, "[13]": {"target": "CDK8/Cyclin C (Homo sapiens, UniProt P49336)", "experiment": "NanoBRET live-cell target engagement, NanoLuc-CDK8/Cyclin C in HEK-293", "type": "binding", "conditions": "CDK8/C, read-out: Inhibition at 10µM (%)"}, "[14]": {"target": "CDK1/Cyclin E1 (Homo sapiens, UniProt P06493)", "experiment": "NanoBRET live-cell target engagement, CDK1-NanoLuc/Cyclin E1 in HEK-293", "type": "binding", "conditions": "CDK1/E1, read-out: Inhibition at 10µM (%)"}, "[15]": {"target": "CDK19/Cyclin C (Homo sapiens, UniProt Q9BWU1)", "experiment": "NanoBRET live-cell target engagement, NanoLuc-CDK19/Cyclin C in HEK-293", "conditions": "read-out: Inhibition at 10µM (%), CDK19/C"}, "[16]": {"target": "CDK10/Cyclin L2 (Homo sapiens, UniProt Q15131)", "sequence (Q15131 whole entry)": "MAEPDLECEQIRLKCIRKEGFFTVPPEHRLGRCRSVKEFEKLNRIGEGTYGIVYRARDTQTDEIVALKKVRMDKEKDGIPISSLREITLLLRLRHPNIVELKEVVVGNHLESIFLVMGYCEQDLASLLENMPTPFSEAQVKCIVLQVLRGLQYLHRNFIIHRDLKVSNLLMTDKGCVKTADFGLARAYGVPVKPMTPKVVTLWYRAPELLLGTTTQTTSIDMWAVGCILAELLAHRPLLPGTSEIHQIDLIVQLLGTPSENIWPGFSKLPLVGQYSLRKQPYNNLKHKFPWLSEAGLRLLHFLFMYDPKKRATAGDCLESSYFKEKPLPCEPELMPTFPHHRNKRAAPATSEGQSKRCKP", "experiment": "NanoBRET live-cell target engagement, CDK10-NanoLuc/Cyclin L2 in HEK-293", "conditions": "read-out: Inhibition at 10µM (%), CDK10/L2"}, "[17]": {"target": "CDK2/Cyclin E1 (Homo sapiens, UniProt P24941)", "experiment": "NanoBRET live-cell target engagement, CDK2-NanoLuc/Cyclin E1 in HEK-293", "type": "binding", "conditions": "CDK2/E1, read-out: Inhibition at 10µM (%)"}, "[18]": {"target": "CDK6/Cyclin D1 (Homo sapiens, UniProt Q00534)", "experiment": "NanoBRET live-cell target engagement, NanoLuc-CDK6/Cyclin D1 in HEK-293", "type": "binding", "conditions": "CDK6/D1, read-out: Inhibition at 10µM (%)"}, "[19]": {"target": "CDK16/Cyclin Y (Homo sapiens, UniProt Q00536)", "experiment": "NanoBRET live-cell target engagement, CDK16-NanoLuc/Cyclin Y in HEK-293", "type": "binding", "conditions": "read-out: Inhibition at 10µM (%), CDK16/Y"}}, "note": "Like-named read-outs stand apart in the source and are kept apart here."}
{"smiles": "COc1ccccc1-c1cc(Nc2cccc(CS(N)(=O)=O)c2)ncn1", "note": "[LDC000067]", "values": [{"measurement": "inhibition at 10 µM", "setting": "[1]; experiment 1", "value": 11.2, "unit": "%"}, {"measurement": "inhibition at 10 µM", "setting": "[1]; experiment 2", "value": 17.8, "unit": "%"}, {"measurement": "inhibition at 10 µM", "setting": "[2]; average", "value": 11.4, "unit": "%"}, {"measurement": "inhibition at 10 µM", "setting": "[2]; experiment 1", "value": 17.5, "unit": "%"}, {"measurement": "inhibition at 10 µM", "setting": "[2]; experiment 2", "value": 5.3, "unit": "%"}, {"measurement": "inhibition at 10 µM", "setting": "[3]; average", "value": -1, "unit": "%"}, {"measurement": "inhibition at 10 µM", "setting": "[3]; experiment 1", "value": 3, "unit": "%"}, {"measurement": "inhibition at 10 µM", "setting": "[3]; experiment 2", "value": -5, "unit": "%"}, {"measurement": "inhibition at 10 µM", "setting": "[4]; average", "value": -9.3, "unit": "%"}, {"measurement": "inhibition at 10 µM", "setting": "[4]; experiment 1", "value": -12.1, "unit": "%"}, {"measurement": "inhibition at 10 µM", "setting": "[4]; experiment 2", "value": -6.5, "unit": "%"}, {"measurement": "inhibition at 10 µM", "setting": "[5]; average", "value": 19, "unit": "%"}, {"measurement": "inhibition at 10 µM", "setting": "[5]; experiment 1", "value": 20.7, "unit": "%"}, {"measurement": "inhibition at 10 µM", "setting": "[5]; experiment 2", "value": 17.3, "unit": "%"}, {"measurement": "inhibition at 10 µM", "setting": "[6]; average", "value": 44, "unit": "%"}, {"measurement": "inhibition at 10 µM", "setting": "[6]; experiment 1", "value": 41.2, "unit": "%"}, {"measurement": "inhibition at 10 µM", "setting": "[6]; experiment 2", "value": 46.7, "unit": "%"}, {"measurement": "inhibition at 10 µM", "setting": "[7]; average", "value": -2.3, "unit": "%"}, {"measurement": "inhibition at 10 µM", "setting": "[7]; experiment 1", "value": -0.216, "unit": "%"}, {"measurement": "inhibition at 10 µM", "setting": "[7]; experiment 2", "value": -4.4, "unit": "%"}, {"measurement": "inhibition at 10 µM", "setting": "[8]; average", "value": 8.7, "unit": "%"}, {"measurement": "inhibition at 10 µM", "setting": "[8]; experiment 1", "value": 5.1, "unit": "%"}, {"measurement": "inhibition at 10 µM", "setting": "[8]; experiment 2", "value": 12.3, "unit": "%"}, {"measurement": "inhibition at 10 µM", "setting": "[9]; average", "value": 27.7, "unit": "%"}, {"measurement": "inhibition at 10 µM", "setting": "[9]; experiment 1", "value": 23.7, "unit": "%"}, {"measurement": "inhibition at 10 µM", "setting": "[9]; experiment 2", "value": 31.7, "unit": "%"}, {"measurement": "inhibition at 10 µM", "setting": "[10]; average", "value": 88.8, "unit": "%"}, {"measurement": "inhibition at 10 µM", "setting": "[10]; experiment 1", "value": 87.2, "unit": "%"}, {"measurement": "inhibition at 10 µM", "setting": "[10]; experiment 2", "value": 90.3, "unit": "%"}, {"measurement": "inhibition at 10 µM", "setting": "[11]; average", "value": 10.2, "unit": "%"}, {"measurement": "inhibition at 10 µM", "setting": "[11]; experiment 1", "value": 9.7, "unit": "%"}, {"measurement": "inhibition at 10 µM", "setting": "[11]; experiment 2", "value": 10.7, "unit": "%"}, {"measurement": "inhibition at 10 µM", "setting": "[12]; average", "value": 7.5, "unit": "%"}, {"measurement": "inhibition at 10 µM", "setting": "[12]; experiment 1", "value": 4.3, "unit": "%"}, {"measurement": "inhibition at 10 µM", "setting": "[12]; experiment 2", "value": 10.7, "unit": "%"}, {"measurement": "inhibition at 10 µM", "setting": "[13]; average", "value": 5.3, "unit": "%"}, {"measurement": "inhibition at 10 µM", "setting": "[13]; experiment 1", "value": 5.1, "unit": "%"}, {"measurement": "inhibition at 10 µM", "setting": "[13]; experiment 2", "value": 5.6, "unit": "%"}, {"measurement": "inhibition at 10 µM", "setting": "[14]; average", "value": 31.6, "unit": "%"}, {"measurement": "inhibition at 10 µM", "setting": "[14]; experiment 1", "value": 30.7, "unit": "%"}, {"measurement": "inhibition at 10 µM", "setting": "[14]; experiment 2", "value": 32.5, "unit": "%"}, {"measurement": "inhibition at 10 µM", "setting": "[15]; average", "value": 11.4, "unit": "%"}, {"measurement": "inhibition at 10 µM", "setting": "[15]; experiment 1", "value": 16.6, "unit": "%"}, {"measurement": "inhibition at 10 µM", "setting": "[15]; experiment 2", "value": 6.1, "unit": "%"}, {"measurement": "inhibition at 10 µM", "setting": "[16]; average", "value": 6.6, "unit": "%"}, {"measurement": "inhibition at 10 µM", "setting": "[16]; experiment 1", "value": 10.2, "unit": "%"}, {"measurement": "inhibition at 10 µM", "setting": "[16]; experiment 2", "value": 3.1, "unit": "%"}, {"measurement": "inhibition at 10 µM", "setting": "[17]; average", "value": 18.7, "unit": "%"}, {"measurement": "inhibition at 10 µM", "setting": "[17]; experiment 1", "value": 15.1, "unit": "%"}, {"measurement": "inhibition at 10 µM", "setting": "[17]; experiment 2", "value": 22.2, "unit": "%"}, {"measurement": "inhibition at 10 µM", "setting": "[18]; average", "value": 38.7, "unit": "%"}, {"measurement": "inhibition at 10 µM", "setting": "[18]; experiment 1", "value": 31.9, "unit": "%"}, {"measurement": "inhibition at 10 µM", "setting": "[18]; experiment 2", "value": 45.4, "unit": "%"}, {"measurement": "inhibition at 10 µM", "setting": "[19]; experiment 1", "value": 17, "unit": "%"}, {"measurement": "inhibition at 10 µM", "setting": "[19]; experiment 2", "value": 12.6, "unit": "%"}]}
